One data set has as its system K562. Nature of the data set: Antiproliferative activity in K562 leukemia cells. The class given is cell-based. The following applies: Homo sapiens.
In a further data set the test system is HL-60. The experiment in a line: Antiproliferative activity in HL-60 leukemia cells. It counts as cell-based. The conditions noted are these: Homo sapiens. As to the method:
The human breast carcinoma cell line MCF-7, was purchased from the European Collection of Animal Cell Cultures (ECACC) and was cultured in Eagle’s minimum essential medium with 10% fetal bovine serum, 2 mM L-glutamine and 100 μg/mL penicillin/streptomycin. The medium was supplemented with 1% non-essential amino acids. The human breast carcinoma cell line MDA-MB-231 was purchased from the European Collection of Animal Cell Cultures (ECACC). MDA-MB-231 cells were maintained in Dulbecco’s modified Eagle’s medium (DMEM) supplemeted with 10% (v/v) fetal bovine serum, 2 mM L-glutamine and 100 μg/mL penicillin/streptomycin (complete medium). All media contained 100 U/mL penicillin and 100 μg/mL streptomycin. […]
Cells were seeded at a density of 5 × 10^3 cells/well (MCF-7), in triplicate in 96-well plates. […] Cell viability for MCF-7 and MDA-MB-231 was analysed using the Alamar Blue assay (Invitrogen Corp, Thermo Fisher Scientific, 168 Third Avenue, Waltham, MA, USA) according to the manufacturer’s instructions. […] Fluorescence was read using a 96-well fluorimeter with excitation at 530 nm and emission at 590 nm. Results were expressed as percentage viability relative to vehicle control (100%). […]

In another data set the test system is NCI-H460. Nature of the data set: NCI60 screen (SRB), Non-Small Cell Lung Cancer. It counts as cell-based. The following applies: Homo sapiens.
In the next data set the test system is SK-MEL-2. Nature of the data set: NCI60 screen (SRB), Melanoma. It counts as cell-based. The conditions noted are these: Homo sapiens.
For a further data set, the system named is NCI-H23. The experiment in a line: NCI60 screen (SRB), Non-Small Cell Lung Cancer. It counts as cell-based. The conditions noted are these: Homo sapiens.
In the next data set the test system is A549/ATCC. Nature of the data set: NCI60 screen (SRB), Non-Small Cell Lung Cancer. The following applies: Homo sapiens. It counts as cell-based.
The test system of another data set is KM12. Nature of the data set: NCI60 screen (SRB), Colon Cancer. The class given is cell-based. The conditions noted are these: Homo sapiens.
A further data set deals with HOP-62. Nature of the data set: NCI60 screen (SRB), Non-Small Cell Lung Cancer. The class given is cell-based. The following applies: Homo sapiens.
Data set [1] is described as follows: HPLC stability study in phosphate buffers. It counts as physicochemical. The conditions noted are these: phosphate buffer, read-out: half-life (t½). As to the method: (§1) Analytical high-performance liquid chromatography (HPLC) stability studies were performed using a Symmetry® column (C18, 5 µm, 4.6 × 150 mm), a Waters 2487 Dual Wavelength Absorbance detector, a Waters 1525 binary HPLC pump and a Waters 717 plus Autosampler (Waters Corporation, 34 Maple St, Milford, MA, USA). Samples were detected at wavelength of 254 nm. All samples were analysed using acetonitrile (80%) and water (20%) as the mobile phase over 10 min and a flow rate of 1 mL/min. Stock solutions were prepared by dissolving 5 mg of compound 7s, 17b and 17c in 10 mL of mobile phase. Phosphate buffers at the desired pH values (4, 7.4 and 9) were prepared in accordance with the British Pharmacopoeia monograph 2015. 30 µL of stock solution was diluted with 1 mL of appropriate buffer, shaken and injected immediately. Samples were withdrawn and analysed at time intervals of t = 0 min, 5 min, 30 min, 60 min, 90 min, 120 min, 24 h and 48 h. Plasma stability studies: 360 µL stock solution of compounds 7s, 17b and 17c were transferred to buffered plasma (plasma: buffer = 1:9, 4 mL in total) at 37 °C in screw cap container. Immediately a 250 µL aliquot was withdrawn and added to the Eppendorf tube containing 500 µL ZnSO4.7H2O solution (2% w/v ZnSO4 solution in acetonitrile: water, 1:1). The samples were then centrifuged at 10,000 rpm for 3 min and filtered through a 0.2-micron filter and injected according to the HPLC conditions listed above. Further samples were taken in the same manner every 1 h thereafter up to 6 h. A final sample was taken after 24 h. Whole blood stability studies. A 360 µL aliquot of stock solution of compounds 17b and 17c in acetonitrile was added in whole blood (4 mL, treated with 2% sodium citrate) at 37 °C and 300 µL aliquots were withdrawn at approptiate intervals. Samples were transferred to 1.5 mL Eppenddorf tubes containing 1 mL of ZnSO4. 7H2O solution (2% w/v ZnSO4 solution in acetonitrile: water, 1:1), vortexed and then centrifuged for 5 min at 14,000 rpm. The sample filtered through a 0.2-micron filter and injected according to the HPLC conditions listed above.

The nature of a further data set: Plasma stability study. It counts as in vitro ADME, human. Also noted: half-life: dose or concentration left out as unconfirmed. The conditions noted are these: 37 °C; for remaining after 6 h: human plasma. As to the method:
as §1

Where [2] appears, read: NCI60 Melanoma cell line SK-MEL-2, read-out: GI50.
Setting [3] is: NCI60 Colon Cancer cell line KM12, read-out: GI50.
The mark [4] stands for this setting: human, buffered plasma (plasma:buffer 1:9), plasma, read-out: half-life (t½).

Read-outs that look alike come from different tables or passages of the source.

On to `COc1ccc(/C=C\c2cc(OC)c(OC)c(OC)c2)cc1O` [CA-4, Combretastatin A-4, reference compound], for which the 50% inhibitory concentration (IC50) in the data set on K562 and in the data set on HL-60 was 4 nM in each case.
For `C=CC1C(=O)N(c2cc(OC)c(OC)c(OC)c2)C1c1ccc(OC)cc1` (stereo not drawn) [Compound 7h, 4-(4-Methoxyphenyl)-1-(3,4,5-trimethoxyphenyl)-3-vinylazetidin-2-one], the concentration for 50% growth inhibition (GI50) (commonly the concentration at which growth is held to half of that of the control) came out at 36 nM in the data set on NCI-H460; 191 nM in the data set with SK-MEL-2 (SK-MEL-2); 24.5 nM in the data set with NCI-H23; 41.3 nM in the data set with A549/ATCC; 35.1 nM in the data set on KM12 (KM12); 36.9 nM with HOP-62.
Take `C=CC1C(=O)N(c2cc(OC)c(OC)c(OC)c2)C1c1ccc(OC)c(O)c1` (stereo not drawn) [Compound 7s, 4-[3-Hydroxy-4-methoxyphenyl]-1-(3,4,5-trimethoxyphenyl)-3-vinylazetidin-2-one]: the concentration for half-maximal inhibition (IC50) (in general, the concentration needed to halve the response being measured) with K562 came out at 26 nM; in the data set with HL-60, 17 nM. Also, the figures for the GI50 in the data set with SK-MEL-2 (setting [2]) and in the data set with KM12 (setting [3]) were 31.4 nM and less than 10 nM, respectively. The half-life at 14.6 µg/mL in data set [1] (pH 4), in [1] (pH 7.4) and in data set [1] (pH 9) was greater than 24 h in each case. In addition, the half-life (commonly how long it takes for the measured level to halve) at 41.3 µg/mL in the data set “Plasma stability study” (setting [4]) is greater than 24 h.
On to `C=CC1C(=O)N(c2cc(OC)c(OC)c(OC)c2)C1c1ccc(OC)c(N)c1` (stereo not drawn) [Compound 7t, 4-(3-Amino-4-methoxyphenyl)-1-(3,4,5-trimethoxyphenyl)-3-vinylazetidin-2-one], for which the GI50 with NCI-H460 worked out at 35.5 nM; in the data set with SK-MEL-2 (SK-MEL-2) it was 65.6 nM; with NCI-H23, 38.7 nM; with A549/ATCC, 39.2 nM; in the data set on KM12 (KM12) it was 24.2 nM; with HOP-62, 41.2 nM.
With `C=CC1C(=O)N(c2cc(OC)c(OC)c(OC)c2)C1c1ccc(OC)c(OP(=O)(O)O)c1` (stereo not drawn) [Compound 17b, 2-Methoxy-5-(1-(3,4,5-trimethoxyphenyl)-4-oxo-3-vinylazetidin-2-yl)phenyl dihydrogen phosphate], the GI50 came to 85.8 nM in the data set with SK-MEL-2 (setting [2]) and 39.1 nM in the data set with KM12 (setting [3]). Further, the half-life at 14.6 µg/mL in [1] (pH 4), in [1] (pH 7.4) and in [1] (pH 9) was greater than 24 h each time. Further, the “remaining after 6 h” value in the data set “Plasma stability study” is listed as 94%. In the data set “Plasma stability study” (setting [4]), the half-life is greater than 24 h.
Turning to `CCC1C(=O)N(c2cc(OC)c(OC)c(OC)c2)C1c1ccc(OC)c(OP(=O)(O)O)c1` (stereo not drawn) [Compound 17c, 5-(3-Ethyl-1-(3,4,5-trimethoxyphenyl)-4-oxoazetidin-2-yl)-2-methoxyphenyl dihydrogen phosphate], the GI50 in the data set with SK-MEL-2 (setting [2]) came to 54.4 nM; in the data set with KM12 (setting [3]), 22 nM. For the same compound, the half-life at 14.6 µg/mL in data set [1] (pH 4), in data set [1] (pH 7.4) and in data set [1] (pH 9) was greater than 24 h each time. The “remaining after 6 h” value in “Plasma stability study” is 92%. In addition, the half-life in “Plasma stability study” (setting [4]) was greater than 24 h.

The record behind these values is paper PMC6630832, “3-Vinylazetidin-2-Ones: Synthesis, Antiproliferative and Tubulin Destabilizing Activity in MCF-7 and MDA-MB-231 Breast Cancer Cells” (Pharmaceuticals, 2019).
